Reference: BindingDB's records for doi:10.1021/jm049513x (University of Bonn, 2005)
pKi: −log10 of the molar value.

Test: Percent inhibition of [3H]PSB-11 binding to adenosine A3 receptor at 10 uM

In the case of CCCn1c(=O)c2nc(C3CC(C)(C)N([O])C(C)(C)C3)[nH]c2n(CCC)c1=O, the pKi was 7.35.
